In ChEMBL document CHEMBL1944620, “Discovery of non-oxime reactivators using an in silico pharmacophore model of oxime reactivators of OP-inhibited acetylcholinesterase” (Eur J Med Chem, 2012):

What was measured:
Anguilliformes [1] = experiment: Reactivation of DFP-inhibited eel AChE assessed as reactivation efficacy by spectrophotometry
Anguilliformes [2] = experiment: Reactivation of DFP-inhibited eel AChE by spectrophotometry relative to 2-PAM

| Compound | Activity (Anguilliformes [1]) [mmol⁻¹ min⁻¹] | Ratio (Anguilliformes [2]) |
| --- | --- | --- |
| COc1ccc(C2NCCc3c2[nH]c2ccc(OCc4ccccc4)cc32)cc1COc1c(Br)cc(Br)cc1Br (centres undefined) | 102 |  |
| COc1cc(/C=N/NC(=O)c2ccc(N)cc2)cc(Br)c1OCc1ccccc1Cl | 214 |  |
| FC(F)(F)c1ccnc(Oc2ccc(/C=N/NC(=S)Nc3cc(Cl)ccc3Cl)cc2)n1 | 53.6 |  |
| FC(F)(F)c1ccnc(NCCNC(=S)NCc2ccco2)n1 | 11 | < 10 |
| OC(CNCCNc1nccc(C(F)(F)F)n1)CSc1ccccc1 (centres undefined) | 91.1 |  |
| COc1cccc(C(=O)Oc2c(Br)cc(Br)cc2/C=N/NC(=O)CNC(=O)c2ccc(OC)c(OC)c2)c1 | 56.2 |  |
| CCOC(=O)c1cc(-c2nc(C(=O)NN)cs2)c(C)nc1C(F)(F)F | 156 |  |
| OC(CNCCNc1nccc(C(F)(F)F)n1)CSc1ccc(F)cc1 (centres undefined) | 30.2 |  |
| COc1ccc(CCNCC(O)Cn2ccc3ccccc32)cc1OC (centres undefined) | 79.6 |  |
| OC(CNCCNc1ccc(C(F)(F)F)cn1)CSc1ccc(F)cc1 (centres undefined) | 71.6 |  |
| OC(CNCCNc1nccc(C(F)(F)F)n1)COc1ccc(OC(F)(F)F)cc1 (centres undefined) | 34.4 |  |
| Cc1cc(C)cc(NC(=O)N2CCCN(c3ncccc3[N+](=O)[O-])CC2)c1 | 77.2 |  |
| CC(C)(C)OC(=O)N1CCCN(C(=S)Nc2ccccc2N2CCOCC2)CC1 | 65.9 |  |
| O=C(Nc1cc(F)cc(F)c1)N1CCCN(c2ncc(C(F)(F)F)cc2Cl)CC1 | 80.7 |  |
| OC(COc1ccc(Cl)c(Cl)c1)CN1CCN(c2nc3ccc(Cl)cc3s2)CC1 (centres undefined) | 25.1 |  |
| COc1cc(/C=N/NC(=O)c2cnc3ccccc3c2)cc(Br)c1OCc1ccccc1Cl | 13 | < 10 |
| COc1cc(C(=O)Oc2c(Br)cc(Br)cc2/C=N/NC(=O)C(O)(c2ccccc2)c2ccccc2)cc(OC)c1OC | 39.9 |  |
| C[n+]1ccccc1C=NO | 2.61 |  |

| Compound | Activity (Anguilliformes [1]) [mmol⁻¹ min⁻¹] | Ratio (Anguilliformes [2]) |
| --- | --- | --- |
| OC(CNCCNc1nccc(C(F)(F)F)n1)COc1ccc(Cl)c(Cl)c1 (centres undefined) | 75.2 |  |
| COc1ccc(/C=C(/NC(=O)c2ccccc2)C(=O)N/N=C\c2cc(Br)c(OCc3ccccc3Cl)c(OC)c2)cc1 | 673 |  |
| OC(CNCCNc1nccc(C(F)(F)F)n1)COc1ccccc1 (centres undefined) | 26.3 |  |
| OC(CNCCNc1ccc(C(F)(F)F)cn1)COc1ccccc1 (centres undefined) | 20.6 |  |
| Cc1nc(-c2ccccn2)nc(N2CCN(CCO)CC2)c1Cl | 13.9 | < 10 |
| CC(CO)(CO)NCC(O)COc1ccc(OC(F)(F)F)cc1 (centres undefined) | 73 |  |
| O=C(Nc1ccc(Cl)cc1)N1CCCN(c2ccc(C(F)(F)F)cc2[N+](=O)[O-])CC1 | 101 |  |
| CCOC(=O)c1cc(C#N)c(C)nc1N1CCN(S(=O)(=O)c2ccccc2)CC1 | 24.7 |  |
| OC1CCN(CC(O)COc2ccc(Cl)c(Cl)c2)CC1 (centres undefined) | 34.3 |  |
| Cc1ccc(S(=O)(=O)NC(=O)NCCCNC(=O)OC(C)(C)C)cc1 | 76 |  |
| OC(CNCCNc1nccc(C(F)(F)F)n1)Cn1ccc2ccccc21 (centres undefined) | 57 |  |
| O=[N+]([O-])c1ccc(OCC(O)CNCCNc2nccc(C(F)(F)F)n2)cc1 (centres undefined) | 212 |  |
| S=C(NC1CCCCCCC1)N1CCCN(c2nc3ccc(Cl)cc3s2)CC1 | 26.7 |  |
| O=[N+]([O-])c1ccc(N2CCCN(C(=S)Nc3ccc(F)cc3Br)CC2)nc1 | 10.7 | < 10 |
| O=C1CCC(=O)N1c1ccc(S(=O)(=O)N2CCN(c3nccc(C(F)(F)F)n3)CC2)cc1 | 48.4 |  |
| COc1cc(/C=N/NC(=O)c2ccccc2NC(C)=O)cc(Br)c1OCc1ccccc1Cl | 33.1 |  |
| OC(CNCCNc1nccc(C(F)(F)F)n1)COc1cccc(C(F)(F)F)c1 (centres undefined) | 38 |  |
